{
  "source": "patent US20030180375A1",
  "about": "“Use of xenon for treating neurointoxications” (AGA AB, priority 1999, published 2003)",
  "key": {"PC12 cells [1]": {"system": "PC12 cells", "assay": "Dopamine release of differentiated PC12 cells in a hypoxic situation (helium instead of oxygen), Example 1", "format": "cell-based, rats", "from_the_text": "An in vitro experiment with PC12 cells is concerned. These PC12 cells are dependants of a pheochromocytoma of rats. […] PC12 cells can be reproduced continuously in vitro. Following the addition of “nerve growth factor”, they start differentiating and become neurons which in many respects have the property of in vivo neurons, particularly the properties which relate to the neurotransmitter release. PC12 cells are acknowledged as neuronal model.\nPC12 cells differentiated in such a manner when exposed to a hypoxic situation, release dopamine. […] If the cells are treated under these hypoxic conditions with xenon in defined concentrations over the same period of time, the neurotransmitter release will be dropped. […] If a hypoxic situation is triggered by a dose of helium instead of oxygen, the curve of the dopamine concentration will result as shown in the curve produced from the solid triangles. A maximum dopamine concentration is shown in this case after about 40 minutes. […] In the above-described experiment, the gases used were given to the cells by mixing them with the growth buffer for the cells. In this case, saturated gas buffer solutions are involved."}, "PC12 cells [2]": {"system": "PC12 cells", "assay": "Dopamine release of differentiated PC12 cells under stress conditions (N2 hypoxia, glutamate), Example 2", "format": "cell-based, rats", "parameters": "dopamine release: dose or concentration left out as unconfirmed", "conditions": "FIG. 2", "from_the_text": "The differentiated PC12 cells described in Example 1 were distributed to various vessels and exposed to differing conditions. These conditions are defined as follows: […]\nThe dopamine release may even be increased if, in addition to the nitrogen atmosphere, glutamate, which represents a neurotransmitter and has a neurotoxic effect in greater doses, was given as well (group: Glu+N2).\nThus, the addition of glutamate to the cells effects an increased dopamine release, particularly when the cells are kept under hypoxic conditions."}},
  "data": [
    {"smiles": "[Xe]", "note": "[xenon]", "values": [
      {"measurement": "reversibility of the xenon effect", "setting": "PC12 cells [1]; after the xenon is washed out, cells cannot be distinguished from untreated cells", "result": "fully reversible"},
      {"measurement": "dopamine concentration over the time course", "setting": "PC12 cells [1]; xenon given in a hypoxic situation, saturated gas buffer solution, compared with non-stressed controls, FIG. 1A", "result": "virtually no longer differ from the control cell population"},
      {"measurement": "relative dopamine concentration (dopamine release)", "setting": "PC12 cells [1]; xenon in a hypoxic situation, compared with control cells, FIG. 1B", "result": "reduced down to values of the control cells"},
      {"measurement": "dopamine release compared to the corresponding (glutamate+N2) experiment", "setting": "PC12 cells [2]; Glu+Xe: 10 M glutamate for 30 minutes of incubation in xenon", "result": "reduced by two-thirds"},
      {"measurement": "dopamine release", "setting": "PC12 cells [2]; Glu+Xe: glutamate for 30 minutes of incubation in xenon", "result": "slightly increased dopamine release"},
      {"measurement": "unintentional neurotransmitter release", "setting": "PC12 cells [2]; simultaneous supply of xenon, glutamate and/or hypoxic conditions", "result": "reduced many times over"}
    ]}
  ]
}
